Reference: patent US20250341522A1, “Treatment Strategies for Pancreatic Cancer Using Recombinant Acid Sphingomyelinase” (University of Cincinnati, priority 2024, published 2025)
One block for each compound: values may come before it.

Key:
[1] = system: isolated immune cells from tumors in wt mice; assay: Anti-CD3-mediated IL-2 and INFγ formation in isolated immune cells from tumor wt mice; type: cell-based; settings: arginine added to isolated immune cells from tumors in wt mice
Text: Further, it was confirmed that sphingomyelin caused upregulation of Arg-1 and ADC and the concomitant reduction of arginine concentrations results in immune inhibition. Confirmation was accomplished by the finding that anti-CD3-mediated IL-2 and INFγ-formation, as well as cytotoxicity toward KPC cells, is lower in splenocytes isolated from wt mice injected with PDAC than in splenocytes from ASM-tr mice (FIG. 8E).

[2] = molecular target: T1, ASM (Mus musculus, UniProt Q04519); assay: Incubation of ex vivo splenocytes, Ly6G-sorted myeloid cells or J774 macrophages with polyamines: ASM activity and sphingomyelin; type: cell-based, mice; settings: agmatine 5 μM, 8 hr
T1 construct: endogenous in cells; host or cells: ex vivo mouse splenocytes, Ly6G-sorted myeloid cells, J774 macrophages
T1 sequence (Q04519 45-627): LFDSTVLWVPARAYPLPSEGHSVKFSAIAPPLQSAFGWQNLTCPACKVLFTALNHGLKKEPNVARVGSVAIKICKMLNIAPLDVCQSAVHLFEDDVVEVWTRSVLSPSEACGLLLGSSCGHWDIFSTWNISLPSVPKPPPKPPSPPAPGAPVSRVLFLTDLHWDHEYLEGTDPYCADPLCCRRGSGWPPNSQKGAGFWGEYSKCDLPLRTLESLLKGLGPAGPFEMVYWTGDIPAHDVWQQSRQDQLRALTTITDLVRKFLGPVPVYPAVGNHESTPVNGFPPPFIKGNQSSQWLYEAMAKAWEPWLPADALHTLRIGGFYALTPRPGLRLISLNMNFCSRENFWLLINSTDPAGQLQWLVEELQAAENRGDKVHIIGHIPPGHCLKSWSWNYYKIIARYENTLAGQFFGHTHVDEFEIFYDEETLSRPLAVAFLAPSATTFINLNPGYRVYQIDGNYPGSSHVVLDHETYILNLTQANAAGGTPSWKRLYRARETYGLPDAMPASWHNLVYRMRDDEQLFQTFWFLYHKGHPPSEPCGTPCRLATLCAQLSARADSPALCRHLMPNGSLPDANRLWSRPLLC
Description: FIG. 9A is a graph showing the concentration of polyamines in the blood plasma of wt or ASM-tr mice determined by ELISA. FIG. 9B is a graph showing the activity of ASM for splenocytes that were isolated from wt or ASM-tr mice and stimulated for 8 hr with 5 μM agmatine (Agm), 100 μM spermine (Sp), or 100 μM spermidine (Spd). FIG. 9C is a graph showing the concentrations of sphingomyelin for splenocytes that were isolated from wt or ASM-tr mice and stimulated for 8 hr with 5 μM agmatine (Agm), 100 μM spermine (Sp), or 100 μM spermidine (Spd). The activity of ASM and the concentrations of sphingomyelin were determined by an enzyme assay or ELISA. Mean±SD; n=6-8; **p<0.01, ***p<0.001 ANOVA.
An increase of Arg-1 and ADC expression may also increase polyamine concentrations. […]
FIG. 10 is a graph showing ASM activity (A) and levels of sphingomyelin (B), Arg-1 (C), and ADC (D) were determined in macrophages (J774 cell line) or in stable ASM-transfected J774 (with an approximately 3-fold overexpression of ASM) at baseline, after treatment with agmatine (Agm, 5 μM), spermine (Sp, 100 μM), or spermidine (Spd, 100 μM), supernatant (Sup) from KPC cells, and supernatant immunodepleted (id) of polyamines. ASM activity was measured by determining the consumption of [^14C]sphingomyelin, Sphingomyelin-, Arginase-1- and ADC-levels were quantified by ELISA. […]

[3] = system: Pan02 pancreas cancer cells; assay: Orthotopic pancreatic cancer murine model (Pan02), tumor size 15 days after injection; type: in vivo; settings: wildtype mice, amitriptyline 10 mg/kg i.p. every other day, 15 days after tumor initiation, vs vehicle
Description: The wildtype mice were randomly divided into 2 groups treated with antidepressant (amitriptyline 10 mg/kg, i.p. injected every 2nd day) or vehicle, i.e. 0.9% NaCl. The size of the pancreas cancer was determined 15 days after tumor initiation.
FIG. 4 is a graph showing a growth of PDAC in murine models of orthotopic pancreatic ductal adenocarcinoma. Wildtype mice were injected orthotopically into the pancreas with […] Pan02 pancreas cancer cells and either left untreated or treated with amitriptyline at 10 mg/kg every other day via IP injection starting at day 4 after tumor injection. In addition, we injected acid sphingomyelinase-deficient littermates with Pan02 pancreas cancer cells orthotopically into the pancreas. Tumor size was determined 15 days after injection. Shown are the mean±SD of the tumor size from each n=4-5 mice per group; *p<0.05, ANOVA with Tukey post hoc test.
All animal experiments were approved by the University of Cincinnati Ethic Committee and the Institutional Animal Care and Use Committee. Eight-week-old, wild type male, C57BL/6J mice were purchased from Jackson Labs (000664, Jackson Labs, USA). Acid sphingomyelinase-deficient mice (Smpd1−/−) were bred and genotyped at the animal facility of the University of Cincinnati. […] The size of the pancreas cancer was determined in all groups 15 days after tumor initiation.

[4] = molecular target: T2, SLC66A1 (Mus musculus, UniProt Q8C4N4); assay: Binding of [14C]sphingomyelin to immunoprecipitated SLC66A1
T2 construct: SLC66A1 was immunoprecipitated from 40×10^6 splenocytes, after lysis in RIPA-buffer+aprotinin/leupeptin; endogenous in cells; host or cells: splenocytes (immunoprecipitate on protein A/G agarose)
T2 sequence (Q8C4N4 1-293): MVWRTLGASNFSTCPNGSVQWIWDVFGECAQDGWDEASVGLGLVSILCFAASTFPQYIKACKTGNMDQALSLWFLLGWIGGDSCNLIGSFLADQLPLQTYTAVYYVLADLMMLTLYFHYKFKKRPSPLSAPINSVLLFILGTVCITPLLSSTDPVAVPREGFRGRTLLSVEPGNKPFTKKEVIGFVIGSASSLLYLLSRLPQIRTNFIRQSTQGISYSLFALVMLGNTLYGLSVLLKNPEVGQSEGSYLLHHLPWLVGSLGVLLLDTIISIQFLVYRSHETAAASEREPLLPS
Description: FIG. 7A is a graph showing the binding of [^14C]sphingomyelin (SM), [^14C]ceramide (Cer), and [^14C]sphingosine (SPH) in the absence or presence of the VMLTLYFYY peptide.
(§1) The lysosomal arginine transporter SLC66A1 contains a VMLTLYFYY motif. A study was conducted to investigate whether SLC66A binds to sphingomyelin. […] Additionally, efflux of arginine was markedly higher in lysosomes of splenic myeloid cells isolated from wt tumors than in cells from control mice and absent in ASM-tr cells (FIG. 7B).
FIG. 7A is a graph showing SLC66A1 was immunoprecipitated from 40×10^6 splenocytes, after lysis in RIPA-buffer+aprotinin/leupeptin. Immunocomplexes were immobilized on protein A/G agarose, washed 3-times in RIPA buffer and twice in PBS+0.1% Triton X100, resuspended in the same buffer and binding of [^14C]sphingomyelin (SM), [^14C]ceramide (Cer), or [^14C]sphingosine (SPH) was measured in the absence or presence of the VMLTLYFYY peptide.

[5] = system: KPC-PDAC cells; assay: Tumor development and survival of wildtype and ASM-transgenic mice after i.p. injection of KPC-PDAC cells, gemcitabine treatment (Example 4, FIG. 5); type: in vivo; settings: for response of tumors to treatment: i.p. KPC-PDAC cells
Description: FIG. 5 is a graph showing the survival of wildtype and ASM-transgenic mice after i.p. injection of 25,000 KPC cells. Treatment of ASM-transgenic (tr) mice with gemcitabine rescued 100% of the mice from tumor growth. n=12 each group.
An experiment was conducted to determine if acid sphingomyelinase overexpression prevents tumor growth. Based on the clinical data, the effects of ASM overexpression and tumor growth were evaluated.

[6] = system: lysosomal arginine transport; assay: Efflux of arginine from isolated lysosomes of Ly6G-sorted splenocytes; type: biochemical, mice; settings: lysosomes of wt cells treated with sphingomyelin
Description: FIG. 7B is a graph showing the results of isolated lysosomes from Ly6G-sorted splenocytes obtained from mice with or without PDAC being loaded with [^14C]arginine and the efflux of [3H]arginine being determined. Aliquots of the lysosomes were treated with sphingomyelin.
as §1
FIG. 7B is a graph showing isolated lysosomes from Ly6G-sorted splenocytes obtained from mice with or without PDAC were loaded with [^14C]arginine and the efflux of [3H]arginine was determined. Aliquots of the lysosomes were treated with sphingomyelin. Mean±SD; n=6-8; ***p<0.001 ANOVA.

Compound: N=C(N)NCCC[C@H](N)C(=O)O [arginine]
CD3-mediated formation of IL-2 and INFγ [1]: restored

Compound: N=C(N)NCCCCN [agmatine]
ASM activity [2]: inhibited ASM activity | cellular sphingomyelin concentrations [2]: increased cellular sphingomyelin concentrations

Compound: CN(C)CCC=C1c2ccccc2CCc2ccccc21 [amitriptyline]
tumor growth (tumor size) [3]: increased tumor growth

binding of sphingomyelin to SLC66A1 in the presence of peptide ([4]; excess synthetic peptide): almost abrogated
Compound: VMLTLYFYY [VMLTLYFYY peptide]

Compound: Nc1ccn([C@@H]2O[C@H](CO)[C@@H](O)C2(F)F)c(=O)n1 [gemcitabine]
response of tumors to treatment ([5]; ASM-tr mice, low dose of gemcitabine): completely eradicate the tumors | mice rescued from tumor growth ([5]; ASM-transgenic mice, 25,000 KPC cells i.p., n=12): 100% | response of tumors to treatment ([5]; wt mice): resistant

binding to SLC66A1 ([4]; immunoprecipitation from splenocytes, [14C]sphingomyelin): direct and specific binding
Compound: sphingomyelin
efflux of arginine from lysosomes [6]: strongly activated
